Patent US10953051B2, “Methods and means for protecting the skin against pathogenic microorganisms” (Novozymes A/S, priority 2005, dated 2021)
Positions of bridges follow the written chain, without caps; N, C: chain ends. Non-standard residues stand in square brackets, D forms with d. Residues, ends and D or L forms follow the SMILES beside them. *: point of attachment. Ileψ(thiazoline)Cys = CC[C@H](C)[C@H](N)C1=N[C@H](C(=O)*)CS1; dOrn = NCCC[C@@H](N)C(=O)O

Tests used:
[1] = system: resident flora; conditions: infants, after treatment with the antibiotic (Brook, 2000); cited from earlier work
[2] = system: Staphylococcus aureus (DSM346); experiment: in-vitro-hole plate assay, growth inhibition of S. aureus in comparison to bacitracin and erythromycin; assay type: cell-based; conditions: pre-cutted holes, BHI plates; antibiotics at different concentrations, defined numbers of Lactobacillus cells
Protocol: The term “microorganisms of the pathogenic transient micro flora” has been described herein above. Preferably, the term relates to Staphylococcus aureus. […] This effect has been compared to commercial antibiotic cream preparations of bacitracin and erythromycin. […] The diameter of the inhibition zones has been measured and the area of inhibition has been calculated thereof. […] Lactic acid bacteria were cultivated (OB-LB-Sa3; DSM 18006) from a −80° C. freezing culture in 1 ml MRS broth in eppendorf tubes. Tubes were closed and cultivated for 2 days at 37° C. 10 μl of this pre culture was transferred to the main culture consisting of 7 ml MRS broth in falcon tubes. The culture was incubated for 2 days. After cultivation cells were harvested by centrifugation (15 min, 4000×g). The cell pellet was washed two times with K/Na-buffer (each 1 ml). Cells were resuspended in 200 μl K/Na buffer. The indicator strain was Staphylococcus aureus (DSM346). 20 ml BHI broth in a shaking glass flask were inoculated with 15 μl of a 24 h pre culture. The indicator strain was cultivated for 24 h at 37° C. An aliquot was diluted to an optical density OD595 nm of 0.025-0.05 in BHI-broth and 800 μl spread on indicator plates (BHI). The agar was stamped using a cork borer. The holes were filled with 5 μl or 10 μl of the pre cultured lactic acid bacteria or corresponding volumes of commercial antibiotic preparations.

CC1(C)S[C@@H]2[C@H](NC(=O)[C@H](N)c3ccc(O)cc3)C(=O)N2[C@H]1C(=O)O [amoxicillin]
repression of the resident flora [1]: about 50%

CC[C@H](C)[C@H](N)C1=N[C@H](C(=O)N[C@@H](CC(C)C)C(=O)N[C@H](CCC(=O)O)C(=O)N[C@H](C(=O)N[C@H]2CCCCNC(=O)[C@H](CC(N)=O)NC(=O)[C@@H](CC(=O)O)NC(=O)[C@H](Cc3cnc[nH]3)NC(=O)[C@@H](Cc3ccccc3)NC(=O)[C@H]([C@@H](C)CC)NC(=O)[C@@H](CCCN)NC2=O)[C@@H](C)CC)CS1 [bacitracin] ({Ileψ(thiazoline)Cys}-L[dE]IK[dOrn]I[dF]H[dD]N; lactam 4-C)
growth inhibition of S. aureus (inhibition zone, area of inhibition) [2]: growth inhibition

CC[C@H]1OC(=O)[C@H](C)[C@@H](O[C@H]2C[C@@](C)(OC)[C@@H](O)[C@H](C)O2)[C@H](C)[C@@H](O[C@@H]2O[C@H](C)C[C@H](N(C)C)[C@H]2O)[C@](C)(O)C[C@@H](C)C(=O)[C@H](C)[C@@H](O)[C@]1(C)O [erythromycin]
growth inhibition of S. aureus (inhibition zone, area of inhibition) [2]: growth inhibition

Lactobacillus delbrückii ssp. delbrückii OB-LB-Sa3
growth inhibition of S. aureus (inhibition zone, area of inhibition) [2]: growth inhibition
